# How the values were obtained:
# primary human neurons = experiment: TUNEL apoptosis of neurons challenged by (fibrillar Aβ+IL-1β)-activated astrocytes, astrocyte-neuron trans-well; format: cell-based; settings: neurons pretreated 40 h with 1 μM oligonucleotide; 6 h with (fibrillar Aβ+IL-1β)-activated astrocytes
# Protocol: Primary human astrocytes were grown to confluency on inserts. After 24 h of stimulation by the combination of Aβ (1 μM) and IL-Iβ (10 ng/ml), inserts were washed thrice with HBSS and then placed onto the wells containing primary human neurons. Therefore, in this trans-well model, although neurons and astrocytes face each other, they are separable and the effect of soluble factors released from activated astrocytes on neurons can be studied allowing analysis of neuronal and glial populations separately.
# Fragmented DNA was detected in situ by the terminal deoxynucleotidyltransferase-mediated binding of 3′-OH ends of DNA fragments generated in response to fibrillar Aβ1-42, using a commercially available kit (TdT FragEL™) from Calbiochem. […]
# Primary human neurons were incubated with antisense (ASO) and scrambled oligonucleotides (ScO) against N-SMase (A) and A-SMase (FIG. 2B). After 48 h, neurons were analyzed for protein expression of N-SMase and A-SMase. […] After 6 h of treatment with activated astrocytes, apoptotic events in neurons were detected by TUNEL. In FIG. 2D, TUNEL-positive cells were counted manually in four different images of each of three coverslips by three individuals blinded to the experiment. […] Values obtained from the control group served as 100%, and data obtained in other groups were calculated as percent of control accordingly. […]
# A-SMase [1] = experiment: Western blot of A-SMase protein after antisense knockdown in primary human neurons; format: cell-based; settings: 48 h with oligonucleotide
# Protocol: Because these ASOs have become a very critical part of our study, the efficacy of N-SMase and A-SMase ASOs in inhibiting the protein expression of N-SMase and A-SMase was checked by western blot. […] Next, the effect of antisense knockdown of neuronal N-SMase and/or A-SMase on activated glia-induced neuronal apoptosis by TUNEL was investigated. […] As evidenced by a decrease In MTT metabolism, activated astroglia reduced neuronal viability (FIG. 2E).
# Primary human neurons were incubated with antisense (ASO) and scrambled oligonucleotides (ScO) against N-SMase (A) and A-SMase (FIG. 2B). After 48 h, neurons were analyzed for protein expression of N-SMase and A-SMase. In FIG. 2C, primary human astrocytes seeded in inserts were stimulated by the combination of Aβ and IL-1β as described above. […] After 6 h of treatment with activated astrocytes, apoptotic events in neurons were detected by TUNEL. In FIG. 2D, TUNEL-positive cells were counted manually in four different images of each of three coverslips by three individuals blinded to the experiment. In FIG. 2E, after 18 h of stimulation, cell viability was examined by the metabolism of MTT and the release of LDH. […] Cell viability was checked by MTT (FIG. 2F) and LDH (FIG. 2G). Values obtained from the control group served as 100%, and data obtained in other groups were calculated as percent of control accordingly. […]
# [2] = tested on: neurons (NeuN-positive cells); experiment: TUNEL/NeuN neuronal apoptosis in vivo in the cortex of Aβ-microinjected mice
# primary human astroglia = experiment: NO synthesis (nitrite, Griess reagent) in primary human astroglia; format: cell-based; settings: primary human astroglia, level comparable to IL-1β
# Protocol: Synthesis of NO was determined by assay of culture supernatants for nitrite, a stable reaction product of NO with molecular oxygen, using Griess reagent as described.
# After 24 h of stimulation, the concentration of nitrite was measured in supernatants (FIG. 4A) by Griess reagent. […] Cells were treated with ASO/ScO for 40 h followed by stimulation with the combination of fibrillar Aβ and IL-Iβ as above. After 6 h, the expression of iNOS mRNA was analyzed by both semi-quantitative RT-PCR (C) and quantitative real-time PCR (FIG. 4D). The expression of TNF-a, IL-6 and IL-Iβ mRNAs were analyzed by semi-quantitative RT-PCR (FIG. 4E). Results are mean±SD of three different experiments. ^ap<0.001 vs control; ^bp<0.001 vs (Aβ+IL-Iβ).
# A-SMase [3] = experiment: A-SMase activity in vivo in the cortex after microinjection; design: species or system C57/BL6 mice
# Protocol: (§1) Activities of SMase(s) were assayed as described by. Briefly, after treatment, the cells were washed with PBS, harvested in PBS, divided into two halves, and centrifuged. The fraction for N-SMase was resuspended in buffer A (100 mM Tris-HCl, pH 7.4, 0.1% Triton X-100, 1 mM EDTA, and protease inhibitors), and the cell suspension was sonicated and centrifuged at 500×g at 4° C. for 5 min. The supernatant was used as the enzyme source for N-SMase. The reaction mixture contained enzyme preparation in buffer A containing 5 nmol of [^14C] sphingomyelin, 5 nmol of phosphatidylserine, 5 mM dithiothreitol, and 5 mM MgC¾ in a final volume of 100 μl. Similarly, the fraction for A-SMase was resuspended in buffer B (100 mM sodium acetate, pH 5.0, 0.1% Triton X-100, and protease inhibitors). The cell suspension was sonicated and centrifuged. The supernatant was used as the source of A-SMase. The activity of A-SMase was measured in a 100-μl reaction mixture consisting of the enzyme preparation in buffer B and 5 nmol of [^14C] sphingomyelin. The enzyme reaction was initiated by the addition of 50 μl of substrate and stopped by the addition of 1.5 ml of chloroform:methanol (2:1, v/v) and 0.2 ml of water. After vortexing and phase separation, the aqueous phase was removed for counting.
# (§2) Control mice received saline injection. At indicated time points, cortex was dissected out and divided into two halves—one half for measuring activities of N-SMase (FIG. 7B) and A-SMase (FIG. 7C) and the other for assaying ceramide (FIG. 7D). Control (saline—6 h) group served as 100%, and data from other groups were expressed as percentage of control. Results are mean+SD of five different mice (n=5). ^ap<0.05 vs saline—6 h.
# primary human astrocytes = experiment: GFAP and iNOS double-labeling of primary human astrocytes stimulated with Aβ peptides; format: cell-based; settings: peptide stimulation for 24 h
# Protocol: In FIG. 5A, primary astrocytes were stimulated with fibrillar Aβ1-42, oligomeric Aβ1-42 and reverse peptide Aβ42-1 for 24 h followed by double-labeling of GFAP and iNOS. In FIG. 5B, primary human astrocytes seeded in inserts were stimulated with a combination of I μM of oligomeric Aβ1-42 and 10 ng/ml of IL-Iβ in serum free media. […] After 6 h, neuronal apoptosis was monitored by TUNEL. In FIG. 5C, TUNEL-positive cells were counted manually in four different images of each of three coverslips by three individuals blinded to the experiment. Values obtained from the control group (1) served as 100%, and data obtained from other three groups i.e. the oligomeric Aβ-activated astrocytes (OAA) group (2), the ASO-OAA group (3), and the ScO-OAA group (4) was calculated as percent of control accordingly. Results are mean+S.D. of three different experiments. ^ap<0.001 vs control; ^bp<0.001 vs OAA.
# ceramide = experiment: Ceramide level in vivo in the cortex (DAG kinase assay); design: species or system C57/BL6 mice
# Protocol: After treatment, lipids were extracted from cells as described previously. Ceramide content was quantified using diacylglycerol (DAG) kinase and [γ-^32P] ATP as described earlier. Briefly, dried lipids were solubilized in 20 μl of an octyl β-D-glucoside/cardiolipin solution (7.5% octyl β-D-glucoside, 5 mM cardiolipin in 1 mM diethylenetriaminepentaacetic acid) by sonication in a sonicatorbath. The reaction was then carried out in a final volume of 100 μl containing the 20-μl sample solution, 50 mM imidazole HQ, pH 6.6, 50 mM NaCl, 12.5 mM MgCl2, 1 mM EGTA, 2 mM dithiothreitol, 6.6 μg of DAG kinase, and 1 mM [γ-^32P] ATP (specific activity of 1-5×10^5 cpm/nmol) for 30 min at room temperature. The labeled ceramide-1-phosphate was resolved with a solvent system consisting of methyl acetate:n-propyl alcohol:chloroform:methanol:0.25% KQ in water:acetic acid (100:100:100:40:36:2). […] Quantification of ceramide-1-phosphate was carried out by autoradiography and densitometry scanning using a Fluor Chem 8800 imaging system (Alpha Innotech Corporation). Values are expressed either as arbitrary units (absorbance) or as percent of control, considering control as 100%. […]
# Control mice received saline injection. […] Control (saline—6 h) group served as 100%, and data from other groups were expressed as percentage of control. […]
# iNOS, GFAP and CD11b = experiment: Immunofluorescence of iNOS, GFAP and CD11b in the cortex of Aβ-microinjected mice; format: in vivo, C57/BL6 mice; settings: cortex, 6 h (and 24 h) of microinjection
# Protocol: […], mice were perfused with 4% paraformaldehyde and their brains were processed for immunohistochemical studies. For double labeling of GFAP with iNOS, sections (6 μm) were incubated with polyclonal anti-GFAP (GFAP: 1000 dilution; Calbiochem) and anti-iNOS (iNOS: 1000 dilution; Calbiochem) for 24 h at 4° C. After three washes in PBST (15 min each), slides were further incubated with Cy5 and Cy2 (Jackson ImmunoResearch Laboratories, Inc.) secondary antibodies for 2 h at room temperature. For negative controls, a set of tissue sections was incubated under similar conditions without the primary antibodies. The samples were mounted and observed under a Bio-Rad MRC1024ES confocal laser scanning microscope.
# After 6 h of Aβ microinjection, mice were perfused and double immunofluorescence for GFAP (green) and iNOS (red) (FIG. 8A) and CD 11b (green) and iNOS (red) (FIG. 8B) was performed.
# N-SMase = N-SMase activity in vivo in the cortex after microinjection; design: species or system C57/BL6 mice
# Protocol: as §1, §2
Substance,protection of neurons from activated astrocyte-induced apoptosis (TUNEL) (primary human neurons),level of A-SMase protein (A-SMase [1]),apoptotic death of neurons in vivo in the cortex after Aβ microinjection ([2]; 24 h after microinjection),apoptosis in neurons (NeuN-positive cells) after Aβ microinjection ([2]; within 6 h of microinjection),production of NO by the stimulus alone (primary human astroglia),"activity of A-SMase in the cortex (A-SMase [3]; 1 μg peptide microinjected, same setting as N-SMase)","increase in the activity of A-SMase after Aβ microinjection (A-SMase [3]; antisense experiment, Aβ alone)",astroglial iNOS protein and GFAP (primary human astrocytes),increase in the ceramide level in the cortex (ceramide; after 6 h),increase in the ceramide level in the cortex (ceramide; after 12 h),"glial expression of iNOS (GFAP-positive astrocytes, CD11b-positive microglia) and GFAP after Aβ microinjection (iNOS, GFAP and CD11b)","glial expression of iNOS (GFAP-positive astrocytes, CD11b-positive microglia) and GFAP after Aβ microinjection (iNOS, GFAP and CD11b; listed as Aβ)","activation of N-SMase in the cortex compared to saline microinjection (N-SMase; 1 μg peptide, over the time course)","increase in the activity of N-SMase in the cortex (N-SMase; 6 h of microinjection, 1 μg peptide)","activity of N-SMase in the cortex, in words (N-SMase; 12 h of microinjection)","increase in the activity of N-SMase in the cortex compared to saline (N-SMase; 12 h of microinjection, 1 μg peptide)","activity of N-SMase in the cortex, in words (N-SMase; 24 h of microinjection)","increase in the activity of N-SMase in vivo in the cortex compared to saline (N-SMase; antisense experiment, Aβ alone)"
"5′- GACATCTCGGAGCCGGGGCA -3′ (DNA, all phosphorothioate, methylation of C not given here) [ASO against A-SMase, ID; NO.: 14]",failed to rescue neurons,suppressed,–,–,–,–,–,–,–,–,–,–,–,–,–,–,–,–
"fibrillar Aβ1-42: human Aβ peptide (1-42), Bachem, incubated at 50 μM at 37° C. for 5 days",–,–,markedly induced,unable to induce any apoptosis,capable of inducing,unable to increase,about 35%,induced the expression of iNOS protein and increased the level of GFAP,about 3 fold,about 4 fold,induced,marked increase,marked increase,More than 3 fold,increased further,more than 300%,decreased,more than 4 fold
